Literature values, collected in EP2871189A1, “High-affinity monoclonal anti-strep-tag antibody” (INSTITUT PASTEUR, priority 2013, dated 2015).

Molecular target: Strep-Tactin
Details: individual binding site (monovalent interaction) on Strep-Tactin; Schmidt TG et al, J.Mol. Biol. 1996; read-out: dissociation constant

**Q.** For “Strep-tag II peptide: peptide tag of minimal sequence WSHPQFEK (SEQ ID NO:9) that binds streptavidin / Strep-Tactin”, which Kd is on record?
**A.** ~1 µM
